Earlier results, collected in patent publication US5639739A, “Imidazole containing aminoboronic acids” (The DuPont Merck Pharmaceutical Company, priority 1995, dated 1997).
Each block holds one compound with its values, some of them ahead of it.

Key:
chymotrypsin = chymotrypsin (Bos taurus, UniProt P00766); details: Matteson et al. 1981
human thrombin = human thrombin (Homo sapiens, UniProt P00734)
thrombin = details: literature values

Ki (chymotrypsin): 4000 nM
Compound: CC(=O)N[C@@H](Cc1ccccc1)B(O)O [Acborophe-OH, R-1-acetamido-2-phenylethane boronic acid]

kind of inhibition of human thrombin (human thrombin; Kettner and Shaw 1979): selective but irreversible inhibitor
Compound: N=C(N)NCCC[C@H](NC(=O)[C@@H]1CCCN1C(=O)[C@H](N)Cc1ccccc1)C(=O)CCl [H-(D) Phe-Pro-ArgCH2 Cl]

Ki (human thrombin; human thrombin, literature values): 75 nM
Compound: N=C(N)NCCC[C@@H](C=O)NC(=O)[C@@H]1CCCN1C(=O)[C@H](N)Cc1ccccc1 [D-phenylalanyl-prolyl-arginal]

Ki (thrombin): 700 nM
Compound: N#CC(CCCNC(=N)N)NC(=O)[C@@H]1CCCN1C(=O)[C@H](N)Cc1ccccc1 (stereo partly drawn) [D-phenylalanyl-prolyl-NHCH((CH2)3 NHC(=NH)NH2)--CN]
